Read-outs that look alike come from different tables or passages of the source. *1 amine or outer side, *2 acyl side, *3 side chain or, on linkers, in order; H or OH if unused. Where no end group is shown, it is not given here. [ ]: non-standard residue; d: D form. The star is where a group is joined. ξ: configuration not given here. ξβ3hPhg(2-NO2) = O=C(CC(N[*:1])c1ccccc1[N+](=O)[O-])[*:2]; Biotin = O=C1N[C@H]2[C@H](CS[C@H]2CCCCC(=O)*)N1
How the values were obtained:
[1] = Tb3+ binding affinity and stoichiometry by sensitized luminescence
[2] = target: Lyn (Homo sapiens, UniProt P07948); assay: In vitro kinase assay, ELISA-based detection of peptide phosphorylation; assay type: biochemical; details: ELISA read-out
Protocol: (§1) In vitro kinase assay. Recombinant Abl, Src and Lyn enzymes were obtained from a commercial source (Millipore). EGFP-conjugated Syk was isolated from DT40 chicken B cells stably expressing Syk-EGFP. GFP-conjugated Lck was isolated from Jurkat cells stably expressing Lck-EGFP. Cells were lysed using a solution containing 1% Nonidet P-40, 50 mM Tris-HCl pH 8.0, 100 mM NaCl, 5 mM EDTA, 1 mM sodium orthovanadate, 2 mM NaF and 1× mammalian protease inhibitor cocktail (Sigma). Syk- and Lck-EGFP were immunoprecipitated using GFP-Trap_A beads (Chromotek) or anti-GFP magnetic nanoparticle beads (MBL, Japan). Lysates were incubated with the beads for 1 h at 4° C. The kinase-bound beads were washed and then used in the in vitro kinase assay. Syk-EGFP, Lck-EGFP, or purified Abl or Src kinase (0.1 U) were incubated with kinase reaction buffer (500 μM ATP, 5 mM MnCl2, HEPES, pH 7.2) containing the peptide substrate at 25 μM. Aliquots (22 μL) were taken at designated time points and quenched in 0.5 M EDTA, pH 8.5 (22 μL). The quenched sample (1 μL) was diluted into ELISA-based detection wash buffer and analyzed as described below. For substrate comparison assays, kinase reaction conditions were as described above except that substrate concentrations were 4 μM, and concentration of enzyme used per reaction was 6 nM. The volume of aliquots diluted in an equal volume of quench buffer was 4 μl (for 8 μl total quenched volume), and the entire quenched amount was diluted into ELISA wash buffer and analyzed as described below.
(§2) ELISA-based fluorescence detection. Samples were incubated in a 96-well Neutravidin™ coated plate (Thermo Scientific) in Tris-buffered saline (TBS) containing 0.1% BSA and 0.05% Tween 20 for 1 h at room temperature on a short-radius plate shaker (600 rpm). Following incubation, wells were washed three times with wash buffer (TBS, 0.1% BSA, 0.05% Tween 20), then incubated with mouse anti-phosphotyrosine monoclonal antibody 4G10 (1:5000 dilution in wash buffer, 100 μL per well) for 1 h at room temperature with shaking. Wells were washed three times with wash buffer and incubated with horseradish peroxidase-conjugated goat anti-mouse immunoglobulin G (IgG) secondary antibody (Abcam) (1:1000 dilution in the wash buffer, 100 μL per well) for 1 h at room temperature with shaking. Wells were then washed three times with wash buffer and twice with sodium phosphate buffer (0.05 M, pH 7.5). For chemifluorescence detection, Amplex Red™ reaction buffer (100 μL total volume/well) consisting of Amplex Red™ reagent (50 μL) (Invitrogen), 20 mM H2O2 (500 μL) and sodium phosphate buffer (4500 μL) and allowed to react for 30 min. Fluorescence of Amplex Red™ was measure using a Synergy4 multiwell plate reader (Biotek) with an excitation wavelength of 532 nm and emission wavelength of 590 nm.

[3] = target: Src (Homo sapiens, UniProt P12931); assay: as above; assay type: biochemical; details: ELISA read-out
Protocol: as §1, §2

[4] = target: T1, Abl (Homo sapiens, UniProt P00519); assay: as above; assay type: biochemical; details: ELISA read-out
Protocol: as §1, §2

[5] = target: T2, Syk (Mus musculus, UniProt P48025); assay: as above; assay type: biochemical; details: ELISA read-out
T2 construct: made in house; host or cells: DT40 chicken B cells (Syk-deficient, reconstituted with Syk-EGFP)
Protocol: as §1, §2

[6] = target: T1, Abl; assay: ABStide specificity in vitro kinase assay (terbium luminescence, confirmed by ELISA); assay type: biochemical; details: terbium-sensitized luminescence
Protocol: Terbium based in vitro kinase assays. Recombinant kinases were incubated with the kinase reaction buffer (15 nM kinase, 100 μM ATP, 10 mM MgCl2, 125 ng/μL BSA and 25 mM HEPES pH 7.5, total volume 180 μL) containing 12.5 μM biosensor at 30° C. Aliquots (20 μL) were taken at designated time points (0.5, 5, 10, 15, 30, 45 and 60 min) and quenched in 6 M urea (20 μL). The quenched samples were then treated with the luminescence buffer (500 μM Tb^3+ and 500 mM NaCl, 10 μL) for a total volume of 50 μL (final concentrations of sample components: 2.4 M urea, 40 μM ATP, 4 mM MgCl2, 50 ng/μL BSA and 10 mM HEPES pH 7.5). Luminescence emission spectra were collected as described above and the area under each spectrum was integrated using GraphPad Prism. An additional aliquot (2 μL) of the kinase reaction mixture was taken at each time point for validation of phosphorylation using an ELISA-based chemifluorescent assay as previously described. Briefly, each aliquot was quenched with 0.5 M EDTA and incubated in a 96-well Neutravidin coated plate (15 pmol biotin binding capacity per well, Thermo Scientific) in Tris-buffer saline (TBS) containing 0.1% BSA and 0.05% Tween 20 for 1 h. […] Fluorescence was measured using a Synergy4 multiwell plate reader (Biotek) with an excitation wavelength of 532 nm and emission wavelength of 590 nm.

[7] = target: Syk-EGFP (Mus musculus, UniProt P48025); assay: Terbium time-resolved luminescence dose-response inhibition assay with SAStide; assay type: biochemical; details: SAStide 37.5 μM, 30 min, Tb3+ luminescence, read-out: observed IC50
[8] = test system: peripheral T-cell lymphomas (PTCLs); details: PTCL cells; cited from earlier work
[9] = target: T3, Bcr-Abl (Homo sapiens, UniProt P00519); assay: Cell-based Bcr-Abl biosensor assay in K562 cells, MRM mass spectrometry; set-up: endogenous in cells; host or cells: K562 cells; the other entry of the earlier key: BCR (P11274, Breakpoint cluster region protein); details: 5 min, 1 μg lysate
[10] = target: T3, Bcr-Abl; assay: Cell-based Bcr-Abl biosensor assay in K562 cells, Western blot
[11] = test system: DG75 and DT40 B cell lines; assay: Toxicity of SAStide biosensor peptide in the cell-based assay; details: peptide at 25 μM
Protocol: Cell culture and biological reagents. The DG75 and DT40 B cell lines were grown to a density of 0.4×10^6 cells/mL in RPMI-1640 medium containing 7.5% FBS, 1 mM sodium pyruvate, 100 IU/mL penicillin, 100 μg/mL streptomycin and 50 μM 2-metcaptoethanol. Additionally, DT40 cell medium contained 1% chicken serum. Anti-chicken IgM and anti-mouse IgM F(ab′)2 fragments were purchased from Bethyl Laboratories. Anti-human IgM was purchased from Rockland Immunochemicals. Hydrogen peroxide was purchased from Mallinckrodt. Anti-Syk (N-19) was purchased from Santa Cruz Biotechnology. Anti-tubulin and anti-phosphotyrosine (4G10) were purchased from Millipore. Anti-phospho Syk (Y525/526) was purchased from Cell SignalingTechnology.
Cell-Based peptide SAStide biosensor assay. […] Aliquots of the cell suspension (1 mL) were harvested, lysed in PhosphoSafe Extraction Reagent (EMD Millipore) containing 167 mM EDTA and freshly prepared protease inhibitor cocktail (Roche) and flash frozen. Half the cell lysate from each sample was used for ELISA-based fluorescence detection and the other for immunoblotting. For dose-response experiments, cells were stimulated with varying concentrations of anti-IgM (2.5-10 μg/mL) or hydrogen peroxide (1-7 mM), harvested at 5 min post-stimulation and processed as described above. For immunoblotting, membranes were blocked in 5% goat serum for 1 h. […]

[12] = test system: K562 cells; assay: Intracellular degradation of biosensor peptide in K562 cells, MALDI-TOF/TOF; details: 5 min exposure
[13] = 1 μM peptide, Tb3+ 0-50 μM, read-out: Kd of peptide:terbium complex

T1 sequence (P00519 whole entry, species assumed): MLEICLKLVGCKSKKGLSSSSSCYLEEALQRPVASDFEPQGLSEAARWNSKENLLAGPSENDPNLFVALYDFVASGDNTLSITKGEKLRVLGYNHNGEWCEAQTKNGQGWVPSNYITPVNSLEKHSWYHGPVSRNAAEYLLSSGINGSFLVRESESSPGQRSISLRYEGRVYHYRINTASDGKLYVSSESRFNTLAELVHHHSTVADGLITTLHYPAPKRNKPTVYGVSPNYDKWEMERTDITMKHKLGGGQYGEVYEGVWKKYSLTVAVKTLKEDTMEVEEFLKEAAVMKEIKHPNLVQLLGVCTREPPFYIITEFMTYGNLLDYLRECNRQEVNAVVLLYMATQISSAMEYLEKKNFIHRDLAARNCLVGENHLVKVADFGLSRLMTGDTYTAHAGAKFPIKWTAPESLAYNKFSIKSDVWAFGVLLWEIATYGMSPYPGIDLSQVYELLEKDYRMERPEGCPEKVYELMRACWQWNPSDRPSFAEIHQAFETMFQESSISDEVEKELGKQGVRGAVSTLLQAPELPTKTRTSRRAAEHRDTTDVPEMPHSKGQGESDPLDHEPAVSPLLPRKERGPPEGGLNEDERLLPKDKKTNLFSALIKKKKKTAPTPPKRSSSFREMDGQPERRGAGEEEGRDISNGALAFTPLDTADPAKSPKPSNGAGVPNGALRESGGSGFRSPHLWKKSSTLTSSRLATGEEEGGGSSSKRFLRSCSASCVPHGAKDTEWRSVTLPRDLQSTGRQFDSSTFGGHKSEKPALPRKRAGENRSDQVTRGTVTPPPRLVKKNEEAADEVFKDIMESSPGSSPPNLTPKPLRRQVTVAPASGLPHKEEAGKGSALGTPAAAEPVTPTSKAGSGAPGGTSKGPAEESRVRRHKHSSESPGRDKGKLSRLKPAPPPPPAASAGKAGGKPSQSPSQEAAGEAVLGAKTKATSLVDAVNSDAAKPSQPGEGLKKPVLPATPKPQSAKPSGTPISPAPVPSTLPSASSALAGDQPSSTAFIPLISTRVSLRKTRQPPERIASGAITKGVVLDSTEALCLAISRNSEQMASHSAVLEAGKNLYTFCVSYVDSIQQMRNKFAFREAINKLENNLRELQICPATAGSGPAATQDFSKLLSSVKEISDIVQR
T3 sequence (P00519 with tags, fused parts or gaps): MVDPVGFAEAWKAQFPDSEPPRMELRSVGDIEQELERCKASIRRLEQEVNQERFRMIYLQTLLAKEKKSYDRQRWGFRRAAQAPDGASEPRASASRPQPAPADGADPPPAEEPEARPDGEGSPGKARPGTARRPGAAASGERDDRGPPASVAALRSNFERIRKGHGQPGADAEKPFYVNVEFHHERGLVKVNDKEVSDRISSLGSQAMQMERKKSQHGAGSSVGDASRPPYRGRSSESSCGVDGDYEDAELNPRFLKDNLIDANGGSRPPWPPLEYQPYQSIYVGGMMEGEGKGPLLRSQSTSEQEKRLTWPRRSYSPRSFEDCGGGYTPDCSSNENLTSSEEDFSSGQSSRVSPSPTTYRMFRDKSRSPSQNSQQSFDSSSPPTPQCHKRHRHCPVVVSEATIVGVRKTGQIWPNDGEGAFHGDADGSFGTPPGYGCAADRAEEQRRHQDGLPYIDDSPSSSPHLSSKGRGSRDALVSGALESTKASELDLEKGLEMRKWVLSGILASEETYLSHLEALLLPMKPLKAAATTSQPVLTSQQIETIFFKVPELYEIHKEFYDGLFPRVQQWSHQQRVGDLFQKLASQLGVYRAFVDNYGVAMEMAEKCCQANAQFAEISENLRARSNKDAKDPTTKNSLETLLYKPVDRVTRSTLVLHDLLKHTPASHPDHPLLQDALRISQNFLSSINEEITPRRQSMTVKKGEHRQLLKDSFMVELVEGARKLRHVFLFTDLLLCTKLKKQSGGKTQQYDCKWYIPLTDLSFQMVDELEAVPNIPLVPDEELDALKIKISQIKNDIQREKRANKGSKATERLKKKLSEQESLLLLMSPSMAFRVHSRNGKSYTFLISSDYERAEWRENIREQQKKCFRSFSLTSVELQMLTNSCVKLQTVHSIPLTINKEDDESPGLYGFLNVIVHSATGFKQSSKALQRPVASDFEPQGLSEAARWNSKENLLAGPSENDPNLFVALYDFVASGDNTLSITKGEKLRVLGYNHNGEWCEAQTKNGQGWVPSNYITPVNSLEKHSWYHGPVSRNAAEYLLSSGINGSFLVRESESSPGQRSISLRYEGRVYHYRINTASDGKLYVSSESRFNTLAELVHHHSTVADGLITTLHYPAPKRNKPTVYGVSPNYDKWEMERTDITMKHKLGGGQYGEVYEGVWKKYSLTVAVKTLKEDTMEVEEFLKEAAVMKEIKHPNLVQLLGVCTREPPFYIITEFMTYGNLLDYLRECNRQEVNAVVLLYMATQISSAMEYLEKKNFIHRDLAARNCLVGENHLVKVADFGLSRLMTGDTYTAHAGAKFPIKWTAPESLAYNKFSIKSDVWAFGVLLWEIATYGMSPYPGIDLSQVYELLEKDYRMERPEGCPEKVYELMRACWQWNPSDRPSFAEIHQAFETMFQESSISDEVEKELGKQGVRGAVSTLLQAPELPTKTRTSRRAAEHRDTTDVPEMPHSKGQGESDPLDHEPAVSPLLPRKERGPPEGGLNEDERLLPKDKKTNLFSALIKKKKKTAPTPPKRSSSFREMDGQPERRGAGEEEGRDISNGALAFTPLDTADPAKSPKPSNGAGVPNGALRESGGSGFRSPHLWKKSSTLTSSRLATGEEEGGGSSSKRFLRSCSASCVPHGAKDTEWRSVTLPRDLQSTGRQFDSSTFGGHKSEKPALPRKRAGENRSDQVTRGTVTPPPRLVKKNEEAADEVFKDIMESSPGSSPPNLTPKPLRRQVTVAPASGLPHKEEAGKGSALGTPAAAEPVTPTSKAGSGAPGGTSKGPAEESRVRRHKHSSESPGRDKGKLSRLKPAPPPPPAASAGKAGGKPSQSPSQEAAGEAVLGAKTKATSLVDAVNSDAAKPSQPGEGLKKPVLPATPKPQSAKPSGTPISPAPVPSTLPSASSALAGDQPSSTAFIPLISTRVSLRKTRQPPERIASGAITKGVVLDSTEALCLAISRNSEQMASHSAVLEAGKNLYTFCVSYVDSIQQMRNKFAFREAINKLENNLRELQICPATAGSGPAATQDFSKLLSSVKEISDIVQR
Lyn, sequence (P07948 whole entry, species assumed): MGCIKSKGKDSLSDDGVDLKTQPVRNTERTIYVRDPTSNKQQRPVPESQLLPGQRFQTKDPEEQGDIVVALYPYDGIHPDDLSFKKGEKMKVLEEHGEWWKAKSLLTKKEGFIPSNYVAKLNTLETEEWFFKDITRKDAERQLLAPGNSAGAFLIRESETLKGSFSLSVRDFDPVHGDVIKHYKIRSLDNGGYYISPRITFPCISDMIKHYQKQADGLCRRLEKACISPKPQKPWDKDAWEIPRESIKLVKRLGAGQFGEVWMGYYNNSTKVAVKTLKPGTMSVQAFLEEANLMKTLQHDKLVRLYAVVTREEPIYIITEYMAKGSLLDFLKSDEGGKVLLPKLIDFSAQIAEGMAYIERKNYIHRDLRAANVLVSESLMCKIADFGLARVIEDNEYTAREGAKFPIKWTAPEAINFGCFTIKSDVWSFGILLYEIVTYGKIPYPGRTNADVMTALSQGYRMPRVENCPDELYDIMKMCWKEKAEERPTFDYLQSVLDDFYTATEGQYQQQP
T2 sequence (P48025 whole entry): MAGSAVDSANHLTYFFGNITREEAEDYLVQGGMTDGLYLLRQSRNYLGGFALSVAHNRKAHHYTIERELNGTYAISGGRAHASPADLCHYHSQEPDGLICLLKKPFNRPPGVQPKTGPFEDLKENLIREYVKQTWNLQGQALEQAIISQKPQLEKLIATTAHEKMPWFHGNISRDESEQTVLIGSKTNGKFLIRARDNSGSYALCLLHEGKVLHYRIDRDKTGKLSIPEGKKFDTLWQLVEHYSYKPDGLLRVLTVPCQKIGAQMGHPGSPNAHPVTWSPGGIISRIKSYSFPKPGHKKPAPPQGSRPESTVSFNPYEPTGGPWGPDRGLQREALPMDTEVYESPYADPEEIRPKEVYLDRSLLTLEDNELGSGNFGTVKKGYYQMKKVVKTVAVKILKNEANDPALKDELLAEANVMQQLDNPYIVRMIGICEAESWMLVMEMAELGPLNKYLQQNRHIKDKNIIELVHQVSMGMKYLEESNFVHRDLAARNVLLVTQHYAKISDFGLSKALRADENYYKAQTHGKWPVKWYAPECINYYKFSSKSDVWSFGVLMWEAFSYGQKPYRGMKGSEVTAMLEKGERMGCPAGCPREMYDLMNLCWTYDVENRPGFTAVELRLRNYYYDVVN
Syk-EGFP, sequence (P48025 whole entry): as above

GGDNEGDVYDFVEDGGKbiotin (GGDNEGDVYDFVEDGGK(Biotin)GG) [SFAStideB, Src family artificial substrate peptide B]
Kd [1, 13]: 2.5 µM

GGEEDEDIYEELDEPGGKbiotinGG [SFAStide-A]
phosphorylation of peptide by Lyn [2]: phosphorylate SFAStide-A efficiently | phosphorylation of peptide by Src [3]: phosphorylate SFAStide-A efficiently | phosphorylation of peptide by Abl [4]: will not | phosphorylation of peptide by Syk [5]: will not | Kd [1, 13]: 3.93 µM

GGDEDDNDEVAYQAPFEDGGKbiotinGG (GGDEDDNDEVAYQAPFEDGGK(Biotin)GG) [ABStide, Abl artificial substrate peptide]
substrate specificity Abl against Hck [6]: specific for Abl

Oc1cc(O)cc(/C=C/c2ccc(O)c(O)c2)c1 [piceatannol]
IC50 [7]: 178 ± 1.4 µM

COc1cc(Nc2ncc(F)c(Nc3ccc4c(n3)NC(=O)C(C)(C)O4)n2)cc(OC)c1OC [R406]
effect on cells with elevated Syk Y525/Y526 phosphorylation [8]: induces apoptosis and blocks proliferation

pervanadate [reference compound]
phosphorylated biosensor peptide detected [9]: higher levels | effect on phosphorylation of Abl biosensor ([10]; K562 cells, 10 μM imatinib or 1 μM pervanadate, 5, 30, 60 min): stabilized

DEEDYEEPDEP [SAStide]
phosphorylation of peptide by Lyn [2]: none of which produced any significant signal | phosphorylation of peptide by Src [3]: none of which produced any significant signal | phosphorylation of peptide by Abl [4]: none of which produced any significant signal | phosphorylation of peptide by Syk [5]: phosphorylated | Kd ([1]; read-out: Kd of 1:1 peptide-terbium complex): 7.64 ± 0.32 µM | toxicity of peptide to cells [11]: no toxicity was observed

EAIYAAPFAKKK(Biotin)G[ξβ3hPhg(2-NO2)]GCGGAPTYSPPPPPGGRKKRRQRRRLL [Abl biosensor]
uptake into K562 cells ([10]; 25 μM peptide): readily taken up | intact peptide after exposure to cells [12]: essentially no intact peptide was observed

pSFAStideA [Phosphorylated form of SFAStide-A]
Kd [1, 13]: 0.77 µM

Source: US10150984B2, “Tyrosine kinase biosensors and methods of use” (Purdue Research Foundation, priority 2012, dated 2018)
